Source: article PMC8085067, “The dimer-monomer equilibrium of SARS-CoV-2 main protease is affected by small molecule inhibitors” (Scientific Reports, 2021)
“Also recorded” adds a separate entry of the source.

Target: SARS-CoV-2 M^pro (Severe acute respiratory syndrome coronavirus 2, UniProt P0DTD1)
Test: M^pro activity assay and inhibition (fluorogenic substrate)
Format: biochemical
Conditions: for inhibition of M^pro catalytic activity (in words) / slope m of the fluorescence inhibition curve: inhibitor 30 μM; for inhibition of M^pro catalytic activity (in words): fluorescence assay; for slope m of the fluorescence inhibition curve: ≈0.2 μM M^pro, 40 μM substrate, 30 °C, 20 min preincubation, linear fit up to 30 min

## Fc1c(F)c(N2CCOCCOCCOCCOCCOCC2)c(F)c(F)c1-c1nc(-c2ccccc2)no1 [Inhibitor 4, 16-(2,3,5,6-tetrafluoro-4-(3-phenyl-1,2,4-oxadiazol-5-yl)phenyl)-1,4,7,10,13-pentaoxa-16-azacyclooctadecane]
  inhibition of M^pro catalytic activity (in words): irreversible inactivation of the enzyme; also recorded: most effective among the seven inhibitors
  slope m of the fluorescence inhibition curve: 0±6 RFU/min and ≈ 0 RFU/min

## CCNC(=O)c1noc(-c2c(F)c(F)c(NCCN(CCNc3c(F)c(F)c(-c4nc(C(=O)NCC)no4)c(F)c3F)CCNc3c(F)c(F)c(-c4nc(C(=O)NCC)no4)c(F)c3F)c(F)c2F)n1 [Inhibitor 7, 5,5’,5”-(((nitrilotris(ethane-2,1-diyl))tris(azanediyl))tris(2,3,5,6-tetrafluorobenzene-4,1-diyl))tris(N-ethyl-1,2,4-oxadiazole-3-carboxamide)]
Hill equation fit of percent inhibition
  Hill slope n: 3±1
Hill equation fit of percent inhibition vs inhibitor concentration
  IC50: 15 ± 2 µM
  inhibition of M^pro catalytic activity (in words): irreversible inactivation of the enzyme; also recorded: promising inhibition effect
  slope m of the fluorescence inhibition curve: 1±3 RFU/min and ≈ 1 RFU/min

## OCCN(CCOc1c(F)c(F)c(-c2nc(-c3ccncc3)no2)c(F)c1F)CCOc1c(F)c(F)c(-c2nc(-c3ccncc3)no2)c(F)c1F [Inhibitor 3]
  inhibition of M^pro catalytic activity (in words): week
  slope m of the fluorescence inhibition curve: 23±3 RFU/min
